For one assay, the system named is HeLa. Put plainly: Cytotoxicity against human HeLa cells after 24 hrs by MTT assay. It is filed as functional, cell-based.
The subject of assay [1] is Staphylococcus aureus. The assay can be described thus: Antibacterial activity against Staphylococcus aureus MLS16 MTCC 2940 after 24 hrs by well diffusion method. In kind it is functional. Conditions: MLS16 MTCC 2940, 24 h.
In a further assay the test system is Bacillus subtilis. The assay can be described thus: Antibacterial activity against Bacillus subtilis MTCC 121 after 24 hrs by well diffusion method. Conditions: MTCC 121, 24 h. In kind it is functional.
The next assay relates to Escherichia coli. The assay can be described thus: Antibacterial activity against Escherichia coli MTCC 739 after 24 hrs by well diffusion method. It is filed as functional. Particulars: MTCC 739, 24 h.
Assay [2] has as its system Staphylococcus aureus. Put plainly: Antibacterial activity against Staphylococcus aureus MTCC 96 after 24 hrs by well diffusion method. In kind it is functional. Conditions: MTCC 96, 24 h.
For the next assay, the system named is HepG2. The assay can be described thus: Cytotoxicity against human HepG2 cells after 24 hrs by MTT assay. Conditions: HepG2, 24 h. In kind it is functional, cell-based.
The test system of another assay is Raoultella planticola. The assay can be described thus: Antibacterial activity against Klebsiella planticola MTCC 530 after 24 hrs by well diffusion method. In kind it is functional. Conditions: MTCC 530, 24 h.
For a further assay, the system named is Micrococcus luteus. The assay can be described thus: Antibacterial activity against Micrococcus luteus MTCC 2470 after 24 hrs by well diffusion method. Particulars: MTCC 2470, 24 h. It is filed as functional.
The test system of another assay is COLO 205. Put plainly: Cytotoxicity against human COLO205 cells after 24 hrs by MTT assay. In kind it is functional, cell-based. Particulars: COLO 205, 24 h.
The subject of the next assay is Pseudomonas aeruginosa. Put plainly: Antibacterial activity against Pseudomonas aeruginosa MTCC 2453 after 24 hrs by well diffusion method. It is filed as functional. Conditions: MTCC 2453, 24 h.
A further assay deals with A549. The assay can be described thus: Cytotoxicity against human A549 cells after 24 hrs by MTT assay. In kind it is functional, cell-based. Conditions: A549, 24 h.

Consider 15 compounds from ChEMBL document CHEMBL4014279, “Synthesis of novel pyrazolo[3,4-b]quinolinyl acetamide analogs, their evaluation for antimicrobial and anticancer activities, validation by molecular modeling and CoMFA analysis” (Eur J Med Chem, 2017).

≈ marks a conversion by molar mass, not a printed value.

For the compound `Cc1nn(CC(=O)NC2CCCCC2)c2nc3ccccc3c(C)c12`, the 50% inhibitory concentration (IC50) with HeLa is 14.2 µM; with HepG2 it was 10.8 µM; in the assay on COLO 205, 20.1 µM; in the assay on A549, 12.6 µM. Also, the MIC against Staphylococcus aureus [1], against Bacillus subtilis, against Escherichia coli, in the assay with Staphylococcus aureus [2], against Raoultella planticola and in the assay on Micrococcus luteus was 7.8 to 125 µg/mL (≈ 23.2 to 372 µM) throughout. The MIC with Pseudomonas aeruginosa lay within 7.8 to 125 µg/mL (≈ 23.2 to 372 µM).
In the case of `O=C(Cn1nc(C(F)(F)F)c2c(-c3ccccc3)c3ccccc3nc21)N1CCCCC1`, the 50% inhibitory concentration (IC50) with HeLa was 29.2 µM; in the assay with HepG2, 30.2 µM; in the assay on COLO 205, 19.3 µM; with A549, 25.6 µM. For the same compound, the MIC against Staphylococcus aureus [1], against Bacillus subtilis, against Escherichia coli, with Staphylococcus aureus [2], against Raoultella planticola and with Micrococcus luteus was 7.8 to 125 µg/mL (≈ 17.8 to 285 µM) in each case. In the assay with Pseudomonas aeruginosa, this compound returned a minimum inhibitory concentration (MIC) of 7.8 to 125 µg/mL (≈ 17.8 to 285 µM).
Consider `CCCNC(=O)Cn1nc(C(F)(F)F)c2c(-c3ccccc3)c3ccccc3nc21`, for which the IC50 in the assay with HeLa is 23.7 µM; in the assay on HepG2 it was 23.4 µM; in the assay on COLO 205, 22.1 µM; in the assay on A549, 25.6 µM. Besides, the MIC against Staphylococcus aureus [1], against Bacillus subtilis, in the assay with Escherichia coli, against Staphylococcus aureus [2], against Raoultella planticola and against Micrococcus luteus was 7.8 to 125 µg/mL (≈ 18.9 to 303 µM) throughout. The compound further displayed a minimal inhibitory concentration (MIC) in the assay with Pseudomonas aeruginosa of 7.8 to 125 µg/mL (≈ 18.9 to 303 µM).
`O=C(Cn1nc(C(F)(F)F)c2c(-c3ccccc3)c3ccccc3nc21)Nc1ccc([N+](=O)[O-])cc1`: the 50% inhibitory concentration (IC50) in the assay on HeLa was found to be 15.1 µM; with HepG2 it was 12.2 µM; in the assay with COLO 205, 14.3 µM; with A549 it was 10.8 µM. The minimum inhibitory concentration (MIC) against Staphylococcus aureus [1], in the assay with Bacillus subtilis, in the assay on Escherichia coli, with Staphylococcus aureus [2], against Raoultella planticola and in the assay with Micrococcus luteus was 7.8 to 125 µg/mL (≈ 15.9 to 254 µM) throughout. In addition, the minimal inhibitory concentration (MIC) in the assay with Pseudomonas aeruginosa fell in the range of 7.8 to 125 µg/mL (≈ 15.9 to 254 µM).
For the compound `Cc1nn(CC(=O)NC2CC2)c2nc3ccccc3c(C)c12`, the IC50 with HeLa is 16.7 µM; in the assay on HepG2, 15.2 µM; in the assay on COLO 205 it was 11.9 µM; in the assay with A549, 14.3 µM. For the same compound, the minimal inhibitory concentration (MIC) in the assay with Staphylococcus aureus [1], in the assay on Bacillus subtilis, in the assay on Escherichia coli, with Staphylococcus aureus [2], in the assay with Raoultella planticola and in the assay on Micrococcus luteus was 7.8 to 125 µg/mL (≈ 26.5 to 425 µM) in each case. This compound had a minimum inhibitory concentration (MIC) in the assay on Pseudomonas aeruginosa of 7.8 to 125 µg/mL (≈ 26.5 to 425 µM).
Regarding `Cc1nn(CC(=O)N2CCCCC2)c2nc3ccccc3c(C)c12`, the concentration for half-maximal inhibition (IC50) was found to be 17 µM in the assay with HeLa, 15.5 µM with HepG2, 11.9 µM in the assay with COLO 205 and 20.5 µM in the assay on A549. In addition, the minimal inhibitory concentration (MIC) in the assay on Staphylococcus aureus [1], in the assay with Bacillus subtilis, in the assay with Escherichia coli, in the assay on Staphylococcus aureus [2], with Raoultella planticola and against Micrococcus luteus was 7.8 to 125 µg/mL (≈ 24.2 to 388 µM) throughout. For the same compound, the MIC with Pseudomonas aeruginosa was in the range of 7.8 to 125 µg/mL (≈ 24.2 to 388 µM).
As for `CNC(=O)Cn1nc(C)c2c(C)c3ccccc3nc21`, the half-inhibitory concentration (IC50) amounted to 18.1 µM with HeLa, 17.9 µM with HepG2, 16.3 µM in the assay with COLO 205 and 20.2 µM in the assay on A549. The minimal inhibitory concentration (MIC) was above 125 µg/mL in the assay on Staphylococcus aureus [1]; 62.5 µg/mL (≈ 233 µM) against Bacillus subtilis; above 125 µg/mL in the assay with Escherichia coli; above 125 µg/mL against Staphylococcus aureus [2]; above 125 µg/mL with Raoultella planticola; 15.6 µg/mL (≈ 58.1 µM) against Micrococcus luteus. In the assay with Pseudomonas aeruginosa, this compound had a minimal inhibitory concentration (MIC) above 125 µg/mL.
As to `CNC(=O)Cn1nc(C(F)(F)F)c2c(-c3ccccc3)c3ccccc3nc21`, the concentration for half-maximal inhibition (IC50) is 23.5 µM in the assay on HeLa, 22.5 µM in the assay on HepG2, 19.8 µM in the assay on COLO 205 and 21.4 µM in the assay with A549. In addition, the MIC against Staphylococcus aureus [1], against Bacillus subtilis, against Escherichia coli, in the assay on Staphylococcus aureus [2], against Raoultella planticola and with Micrococcus luteus was 7.8 to 125 µg/mL (≈ 20.3 to 325 µM) throughout. The compound further registered a minimum inhibitory concentration (MIC) in the assay with Pseudomonas aeruginosa of 7.8 to 125 µg/mL (≈ 20.3 to 325 µM).
For the compound `Cc1nn(CC(=O)NCc2ccco2)c2nc3ccccc3c(C)c12`, the IC50 turned out to be 14.4 µM in the assay with HeLa, 13.2 µM with HepG2, 15.6 µM in the assay with COLO 205 and 14.9 µM in the assay on A549. Also, the MIC against Staphylococcus aureus [1], with Bacillus subtilis, in the assay on Escherichia coli, in the assay with Staphylococcus aureus [2], against Raoultella planticola and against Micrococcus luteus was 7.8 to 125 µg/mL (≈ 23.3 to 374 µM) throughout. The same compound showed a minimum inhibitory concentration (MIC) with Pseudomonas aeruginosa of 7.8 to 125 µg/mL (≈ 23.3 to 374 µM).
For the compound `Cc1c2ccccc2nc2c1c(C(F)(F)F)nn2CC(=O)NCc1ccco1`, the 50% inhibitory concentration (IC50) with HeLa was 32.8 µM; in the assay with HepG2, 48.2 µM; in the assay on COLO 205, 29.8 µM; in the assay with A549 it was 33.9 µM. In addition, the MIC against Staphylococcus aureus [1], in the assay on Bacillus subtilis, in the assay on Escherichia coli, against Staphylococcus aureus [2], with Raoultella planticola and against Micrococcus luteus was 7.8 to 125 µg/mL (≈ 20.1 to 322 µM) each time. This compound also had a minimum inhibitory concentration (MIC) against Pseudomonas aeruginosa of 7.8 to 125 µg/mL (≈ 20.1 to 322 µM).
`Cc1c2ccccc2nc2c1c(C(F)(F)F)nn2CC(=O)NC1CCCCC1`: the IC50 with HeLa was 23.4 µM; with HepG2, 29.6 µM; with COLO 205, 24.5 µM; with A549, 28.2 µM. In addition, the minimum inhibitory concentration (MIC) against Staphylococcus aureus [1], with Bacillus subtilis, against Escherichia coli, in the assay with Staphylococcus aureus [2], in the assay with Raoultella planticola and with Micrococcus luteus was 7.8 to 125 µg/mL (≈ 20 to 320 µM) throughout. In the assay on Pseudomonas aeruginosa, this compound showed an MIC of 7.8 to 125 µg/mL (≈ 20 to 320 µM).
With `O=C(Cn1nc(C(F)(F)F)c2c(-c3ccccc3)c3ccccc3nc21)NCc1ccco1`, the IC50 came to 27.2 µM in the assay with HeLa, 26.8 µM in the assay with HepG2, 28.1 µM in the assay on COLO 205 and 22.4 µM in the assay with A549. Moreover, the MIC in the assay with Staphylococcus aureus [1], in the assay with Bacillus subtilis, against Escherichia coli, with Staphylococcus aureus [2], against Raoultella planticola and with Micrococcus luteus was 7.8 to 125 µg/mL (≈ 17.3 to 278 µM) throughout. The same compound gave an MIC against Pseudomonas aeruginosa of 7.8 to 125 µg/mL (≈ 17.3 to 278 µM).
With `CCNC(=O)Cn1nc(C(F)(F)F)c2c(C)c3ccccc3nc21`, the IC50 in the assay with HeLa stood at 19.2 µM; with HepG2, 20.8 µM; in the assay with COLO 205 it was 16.4 µM; in the assay on A549, 22.8 µM. Further, the MIC with Staphylococcus aureus [1], in the assay with Bacillus subtilis, in the assay on Escherichia coli, in the assay on Staphylococcus aureus [2], against Raoultella planticola and with Micrococcus luteus was 7.8 to 125 µg/mL (≈ 23.2 to 372 µM) in each case. For the same compound, the minimum inhibitory concentration (MIC) in the assay with Pseudomonas aeruginosa was in the range of 7.8 to 125 µg/mL (≈ 23.2 to 372 µM).
For `O=C(Cn1nc(C(F)(F)F)c2c(-c3ccccc3)c3ccccc3nc21)NC1CCCCC1`, the IC50 in the assay with HeLa was found to be 29.7 µM; in the assay with HepG2 it was 30.2 µM; in the assay with COLO 205, 32.1 µM; in the assay on A549, 25.9 µM. The MIC with Staphylococcus aureus [1], against Bacillus subtilis, against Escherichia coli, against Staphylococcus aureus [2], in the assay with Raoultella planticola and in the assay on Micrococcus luteus was 7.8 to 125 µg/mL (≈ 17.2 to 276 µM) in each case. In the assay on Pseudomonas aeruginosa, this compound registered a minimal inhibitory concentration (MIC) of 7.8 to 125 µg/mL (≈ 17.2 to 276 µM).
Take `O=c1[nH]cc(F)c(=O)[nH]1` [FLUOROURACIL]: the half-inhibitory concentration (IC50) with HeLa is 1.4 µM; in the assay with HepG2, 1.4 µM; with COLO 205, 1.9 µM; with A549, 1.2 µM.
